Measurements taken from patent US20250269039A1, “THERAPEUTIC-OLIGONUCLEOTIDES ACTIVATED BY NUCLEASES” (priority 2020, published 2025).
Converted amounts (≈) assume the structure as drawn. Where two headings read alike, the source gives them in different places.

Key:
[1] = tested on: S. enterica ATCC 14028; experiment: Broth microdilution MIC and growth inhibition (control bacteria); assay type: cell-based; conditions: for MIC: TOUCAN as NA equivalent
Description: (§1) Bacteria strains. S. aureus NCTC 12493 (MRSA), S. aureus ATCC 29213 (MSSA), S. aureus ATCC 43300 (MRSA), S. aureus ATCC 1707 (MRSA), S. aureus ATCC 1717 (MRSA), S. aureus ATCC 1747 (MRSA), S. aureus ATCC 1761 (MRSA), S. aureus ATCC 1766 (MRSA), S. aureus ATCC 1768 (MRSA), S. epidermidis ATCC 35984, E. coli ATCC 25922, K. pneumoniae ATCC 13883, P. mirabilis ATCC 25933, S. enterica ATCC 14028 and P. aeruginosa ATCC 10145 strains were used in this study. Bacteria were initially inoculated onto tryptone soy agar with 5% defibrinated sheep blood (Thermo Fisher Scientific, Inc., Waltham, MA, USA) and incubated at 37° C. for 24 hours. Then, single colonies of each strain were transferred to tryptone soy broth (Thermo Fisher Scientific) for the nuclease activity assay or antimicrobial susceptibility testing, respectively.
(§2) Antimicrobial susceptibility testing. Minimal inhibitory concentrations (MIC) of all nucleoside analogues and TOUCANs against each bacteria strain were determined using broth microdilution method. A single colony obtained from overnight culture on tryptone soy agar with 5% defibrinated sheep blood was inoculated in cation-adjusted Mueller Hinton Broth and adjusted to 10^6 CFU/mL. TOUCANs were prepared in PBS+/+ (treatment) and serial dilutions were made in 96-well polystyrene round bottom microwell plates with 50 μL final volume for each concentration. PBS+/+ was used as untreated control. Next, 50 μL bacteria solutions were added to each well to a final bacteria concentration of 5×10^5 CFU/mL. Plates were incubated at 37° C. in Cytation 1 Cell Imaging Multimode Reader. Growth curves were obtained by measuring optical densities at 600 nm every 10 minutes for 18 hours using Cytation 1 Cell Imaging Multimode Reader. In addition, visual inspection of the plates was carried out after 18 hours and photographs were taken. MICs were defined as the lowest drug concentration in the microwell at which bacterial growth was not visible at the end of the incubation period. Besides MIC determination, specificity of TOUCAN 7mGe was also shown with subcultures on chromogenic media. For this purpose, 5 μL of different concentrations of each strain were inoculated onto CHROM agar Orientation Media (Becton Dickinson) and the bacterial growth of each bacteria strain tested was observed by naked eye after incubation at 37° C. for 24 hours. Finally, photographs of the chromogenic media were taken.

[2] = tested on: P. aeruginosa ATCC 10145; experiment: as above; assay type: cell-based; conditions: for MIC: TOUCAN as NA equivalent
Description: as §1, §2

[3] = tested on: K. pneumoniae ATCC 13883; experiment: as above; assay type: cell-based; conditions: for MIC: TOUCAN as NA equivalent
Description: as §1, §2

[4] = tested on: S. aureus ATCC 1747 (MRSA); experiment: Broth microdilution MIC and growth inhibition; assay type: cell-based, Staphylococcus aureus; conditions: for MIC: 18 h, TOUCAN as NA equivalent
Description: as §1, §2

[5] = tested on: S. aureus ATCC 1768 (MRSA); experiment: Broth microdilution MIC and growth inhibition; assay type: cell-based, Staphylococcus aureus; conditions: for MIC: 18 h, TOUCAN as NA equivalent
Description: as §1, §2

[6] = tested on: S. aureus ATCC 1761 (MRSA); experiment: Broth microdilution MIC and growth inhibition; assay type: cell-based, Staphylococcus aureus; conditions: for MIC: 18 h, TOUCAN as NA equivalent
Description: as §1, §2

[7] = tested on: S. aureus ATCC 29213 (MSSA); experiment: Broth microdilution MIC and growth inhibition; assay type: cell-based, Staphylococcus aureus
Description: as §1, §2

[8] = tested on: S. aureus ATCC 1766 (MRSA); experiment: Broth microdilution MIC and growth inhibition; assay type: cell-based, Staphylococcus aureus; conditions: for growth inhibition, dose response: ATCC-1766 (MRSA), FIGS. 5e-f; for MIC: 18 h, TOUCAN as NA equivalent
Description: as §1, §2

[9] = tested on: S. aureus ATCC 1707 (MRSA); experiment: Broth microdilution MIC and growth inhibition; assay type: cell-based, Staphylococcus aureus; conditions: for MIC: 18 h, TOUCAN as NA equivalent
Description: as §1, §2

[10] = tested on: S. aureus ATCC 1717 (MRSA); experiment: Broth microdilution MIC and growth inhibition; assay type: cell-based, Staphylococcus aureus; conditions: for MIC: 18 h, TOUCAN as NA equivalent
Description: as §1, §2

[11] = tested on: S. aureus ATCC 43300 (MRSA); experiment: Broth microdilution MIC and growth inhibition; assay type: cell-based, Staphylococcus aureus; conditions: for MIC: 18 h, TOUCAN as NA equivalent
Description: as §1, §2

[12] = tested on: S. aureus NCTC 12493 (MRSA); experiment: Broth microdilution MIC and growth inhibition; assay type: cell-based, Staphylococcus aureus
Description: as §1, §2

[13] = tested on: E. coli ATCC 25922; experiment: Broth microdilution MIC and growth inhibition (control bacteria); assay type: cell-based, Escherichia coli; conditions: for MIC: TOUCAN as NA equivalent
Description: as §1, §2

[14] = Staphylococcus aureus, read-out: MIC

## mU-mU-mU-mU-T-T-Fx [TOUCAN 7mFx]
[1]; 18 h
  MIC: >40 µg/mL
[1]; mean ± SD, n = 3
  TOUCAN % Growth inhibition: 10.8 ± 2.1%
[2]; 18 h
  MIC: >40 µg/mL
[2]; mean ± SD, n = 3
  TOUCAN % Growth inhibition: 7.2 ± 1.4%
[3]; 18 h
  MIC: >40 µg/mL
[3]; mean ± SD, n = 3
  TOUCAN % Growth inhibition: 0 ± 0.00%
[4]
  TOUCAN MIC/NA MIC TOUCAN Efficacy Ratio (TER): 500
  MIC: 2.5 µg/mL
[4]; mean ± SD, n = 3
  TOUCAN % Growth inhibition: 92.8 ± 0.7%
[5]
  TOUCAN MIC/NA MIC TOUCAN Efficacy Ratio (TER): 62.5
  MIC: 2.5 µg/mL
[5]; mean ± SD, n = 3
  TOUCAN % Growth inhibition: 93.2 ± 0.3%
[6]
  TOUCAN MIC/NA MIC TOUCAN Efficacy Ratio (TER): 500
  MIC: 2.5 µg/mL
[6]; mean ± SD, n = 3
  TOUCAN % Growth inhibition: 93.9 ± 0.05%
[7]; S. aureus ATCC 29213 (MSSA)
  TOUCAN MIC/NA MIC TOUCAN Efficacy Ratio (TER): 250
[7]; S. aureus ATCC 29213 (MSSA), 18 h, TOUCAN as NA equivalent
  MIC: 20 µg/mL
[7]; S. aureus ATCC 29213 (MSSA), mean ± SD, n = 3
  TOUCAN % Growth inhibition: 92.3 ± 0.09%
[8]; 0.31 μg/mL
  growth inhibition, dose response: partial inhibition
[8]; concentrations from 0.62 to 10 μg/mL
  growth inhibition, dose response: efficient inhibition
[8]; S. aureus ATCC 1766 (MRSA)
  TOUCAN MIC/NA MIC TOUCAN Efficacy Ratio (TER): 15.5
  MIC: 0.62 µg/mL
[8]; S. aureus ATCC 1766 (MRSA), mean ± SD, n = 3
  TOUCAN % Growth inhibition: 93.6 ± 0.1%
[9]
  TOUCAN MIC/NA MIC TOUCAN Efficacy Ratio (TER): 125
  MIC: 5 µg/mL
[9]; mean ± SD, n = 3
  TOUCAN % Growth inhibition: 94.6 ± 0.08%
[10]
  TOUCAN MIC/NA MIC TOUCAN Efficacy Ratio (TER): 125
  MIC: 10 µg/mL
[10]; mean ± SD, n = 3
  TOUCAN % Growth inhibition: 94.5 ± 0.04%
[11]
  TOUCAN MIC/NA MIC TOUCAN Efficacy Ratio (TER): 1000
  MIC: 40 µg/mL
[11]; mean ± SD, n = 3
  TOUCAN % Growth inhibition: 92.8 ± 0.7%
[12]; S. aureus NCTC 12493 (MRSA)
  TOUCAN MIC/NA MIC TOUCAN Efficacy Ratio (TER): 125
[12]; S. aureus NCTC 12493 (MRSA), 18 h, TOUCAN as NA equivalent
  MIC: 40 µg/mL
[12]; S. aureus NCTC 12493 (MRSA), mean ± SD, n = 3
  TOUCAN % Growth inhibition: 91.5 ± 0.00%
[13]; 18 h
  MIC: >40 µg/mL
[13]; mean ± SD, n = 3
  TOUCAN % Growth inhibition: 0 ± 0.00%

## O=c1[nH]c(=O)n([C@H]2C[C@H](O)[C@@H](CO)O2)cc1F [Floxuridine, reference compound]
[1]; Salmonella enterica, ATCC14028, 18 h, read-out: MIC
  MIC: 20 µg/mL
[2]; Pseudomonas aeruginosa, ATCC10145, 18 h, read-out: MIC
  MIC: > 40 µg/mL
[3]; Klebsiella pneumoniae, ATCC13883, 18 h, read-out: MIC
  MIC: 20 µg/mL
[4]; [14]
  MIC: 0.005 µg/mL
[5]; [14]
  MIC: 0.04 µg/mL
[6]; [14]
  MIC: 0.005 µg/mL
[7]; Staphylococcus aureus, S. aureus ATCC 29213 (MSSA), 18 h, TOUCAN as NA equivalent, read-out: MIC
  MIC: 0.08 µg/mL
[7]; Staphylococcus aureus, Table 1, S. aureus ATCC 29213, read-out: MIC
  MIC: 0.08 µg/mL (≈ 0.325 µM)
[7]; Table 1, S. aureus ATCC 29213, mean ± SD, n = 3
  % Growth inhibition: 93.1 ± 0.3%
[8]; Staphylococcus aureus, S. aureus ATCC 1766 (MRSA), read-out: MIC
  MIC: 0.04 µg/mL
[9]; [14]
  MIC: 0.04 µg/mL
[10]; [14]
  MIC: 0.08 µg/mL
[11]; [14]
  MIC: 0.04 µg/mL
[12]; Staphylococcus aureus, S. aureus NCTC 12493 (MRSA), 18 h, TOUCAN as NA equivalent, read-out: MIC
  MIC: 0.32 µg/mL
[12]; Staphylococcus aureus, Table 1, S. aureus NCTC 12493, read-out: MIC
  MIC: 0.32 µg/mL (≈ 1.3 µM)
[12]; Table 1, S. aureus NCTC 12493, mean ± SD, n = 3
  % Growth inhibition: 87.9 ± 0.4%
[13]; Escherichia coli, ATCC25922, 18 h, read-out: MIC
  MIC: 20 µg/mL
